The values that follow come from patent US20230123334A1, “AMINO LIPID COMPOUND, PREPARATION METHOD THEREFOR, AND APPLICATION THEREOF” (SHENZHEN SHENXIN BIOTECHNOLOGY CO., LTD., priority 2020, published 2023).

The subject of this experiment is HEK293 cells. Description: Preliminary screening as DNA vectors, GFP transfection of HEK293 cells. The format is cell-based. The settings on record: amino lipid/DOPE liposome with 75 ng plasmid DNA (psin-EGFP-IRES-Puro); number of GFP-expressing cells divided by total nuclei (Hoechst). The method, then: Cell line: HEK293 cells (ATCC CRL-1573™)
Medium: DMEM supplemented with 10% fetal bovine serum (Invitrogen)
Mode of screening: cell transfection on 96-well plates
Detection (readout): percentage of the number of GFP fluorescent cells relative to the total number of cells (the total number of cells was measured using nucleus dye Hoechst—see FIG. 2). Lipofectamine2000 (Invitrogen) was used as positive control, according to the manufacturer's instructions.
Method: an 8-channel pipette was used for sample addition. The contents shown were for a single well of a 96-well flat plate.
1. The compound (0.01 mmol) prepared in Example 1 was dissolved in 1 mL of anhydrous ethanol. After ultrasonically dissolved, 10 μL of the resultant amino lipid solution in ethanol was taken and mixed with 5 μL of DOPE solution in ethanol (0.01 m), and then to the obtained mixture was added 35 μL of 0.2M sodium acetate buffer (pH 5.6), and 50 μL of liposome solution was prepared by vortex at a constant rotating speed for 30 s. 4 μL was taken from the 50 μL liposome solution and added to 46 μL of 0.02M sodium acetate buffer (pH 5.6), and the final liposome solution was formed by vortex at a constant rotating speed for 30 s. 5 μL was taken from the final liposome solution and mixed with 75 ng plasmid DNA (psin-EGFP-IRES-Puro, Clontech) dissolved in 5 μL of 0.02 M sodium acetate buffer, and was allowed to stay at room temperature for 30 min to form a lipid/DNA transfection complex.
2. 10 μL of the lipid/DNA transfection complex was incubated at room temperature for 30 min, followed by addition of 90 μL of fresh resuspended cells (3-5×10^4 cells) and mixing with a pipette. 100 μL of cells+lipid/DNA complex was transferred to separate wells of a 96-well culture plate immediately, and placed in an incubator containing 5% CO2 at 37° C.
3. Hoechst33258 (Invitrogen) was added at a final concentration of 0.2 μg/mL to the cells 20 to 24 hours after initial cell transfection, and cultured in darkness at 37° C. for 15 min. Afterwards, the cells were washed once with a PBS solution, and then added with medium for culture for 20 to 24 h.
4. The cells were placed in a high-throughput confocal microscope (Molecular Devices ImageXpress), and four visual fields of the image of the cells were captured for each well, and images at three laser wavelengths were captured for each sample: bright field images of cells (FIG. 2(a) and FIG. 2(b)), Hoechst-staining images showing total nuclei (FIG. 2(c) and FIG. 2(d)) and GFP images showing success in transfection with the plasmid DNA and the expression of GFP (FIG. 2(e) and FIG. 2(f)). MetaXpress software was used to separately count the cells in the Hoechst-staining images and GFP images, and then the number of cells expressing GFP was divided by the total number of nuclei to give the absolute cell transfection efficiency. The absolute transfection efficiency was calculated as follows: […]

On to `CCCCCCCCCCCCNc1nc(NCCN2CCCCC2)nc(SCCCCCC)n1` [S6N12 D4], for which the “Absolute DNA transfection efficiency in HEK293 cells” value (shortened to “Absolute DNA transfection efficiency”) worked out at 2.0%.
`CCCCCCCCCCCCNc1nc(NCCN2CCN(C)CC2)nc(SCCCCCC)n1` [S6N12 D5]: the “Absolute DNA transfection efficiency” value is on record as 25.9%.
In the case of `CCCCCCCCCCCCNc1nc(NCCCN(C)C)nc(SCCCCCC)n1` [S6N12 D6] it was 6.0%; in that of `CCCCCCCCCCCCNc1nc(NCCN(CC)CC)nc(SCCCCCC)n1` [S6N12 D7], 2.2%; in that of `CCCCCCCCCCCCNc1nc(NCCCN2CCOCC2)nc(SCCCCCC)n1` [S6N12 D8], 4.0%.
Take `CCCCCCCCCCCCNc1nc(NCCCN2CCN(C)CC2)nc(SCCCCCC)n1` [S6N12 D9]: the “Absolute DNA transfection efficiency” value was found to be 38.8%.
For `CCCCCCCCCCCCNc1nc(NCC2CCN(C)CC2)nc(SCCCCCC)n1` [S6N12 D10] the value was 21.3%; for `CCCCCCCCCCCCCNc1nc(NCCN(C)C)nc(SCCCCCC)n1` [S6N13 D1], 6.5%.
For `CCCCCCCCCCCCCNc1nc(NCCN2CCOCC2)nc(SCCCCCC)n1` [S6N13 D2] the value was 1.9%.
As to `CCCCCCCCCCCCCNc1nc(NCCN2CCCC2)nc(SCCCCCC)n1` [S6N13 D3], the “Absolute DNA transfection efficiency” value is recorded as 9.9%.
Take `CCCCCCCCCCCCCNc1nc(NCCN2CCCCC2)nc(SCCCCCC)n1` [S6N13 D4]: the “Absolute DNA transfection efficiency” value stood at 2.1%.
As for `CCCCCCCCCCCCCNc1nc(NCCN2CCN(C)CC2)nc(SCCCCCC)n1` [S6N13 D5], the “Absolute DNA transfection efficiency” value is 24.1%.
For `CCCCCCCCCCCCCNc1nc(NCCCN(C)C)nc(SCCCCCC)n1` [S6N13 D6] the value was 12.9%; for `CCCCCCCCCCCCCNc1nc(NCCN(CC)CC)nc(SCCCCCC)n1` [S6N13 D7], 2.0%; for `CCCCCCCCCCCCCNc1nc(NCCCN2CCOCC2)nc(SCCCCCC)n1` [S6N13 D8], 4.9%.
Turning to `CCCCCCCCCCCCCNc1nc(NCCCN2CCN(C)CC2)nc(SCCCCCC)n1` [S6N13 D9], the “Absolute DNA transfection efficiency” value was 38.3%.
In the case of `CCCCCCCCCCCCCNc1nc(NCC2CCN(C)CC2)nc(SCCCCCC)n1` [S6N13 D10] it was 51.6%; in that of `CCCCCCCCCCCCCCCNc1nc(NCCN(C)C)nc(SCCCCCC)n1` [S6N15 D1], 5.8%; in that of `CCCCCCCCCCCCCCCNc1nc(NCCN2CCOCC2)nc(SCCCCCC)n1` [S6N15 D2], 2.0%.
For `CCCCCCCCCCCCCCCNc1nc(NCCN2CCCC2)nc(SCCCCCC)n1` [S6N15 D3] the value was 15.9%; for `CCCCCCCCCCCCCCCNc1nc(NCCN2CCCCC2)nc(SCCCCCC)n1` [S6N15 D4], 1.7%; for `CCCCCCCCCCCCCCCNc1nc(NCCN2CCN(C)CC2)nc(SCCCCCC)n1` [S6N15 D5], 22.3%.
Consider `CCCCCCCCCCCCCCCNc1nc(NCCCN(C)C)nc(SCCCCCC)n1` [S6N15 D6], for which the “Absolute DNA transfection efficiency” value came to 25.9%.
As to `CCCCCCCCCCCCCCCNc1nc(NCCN(CC)CC)nc(SCCCCCC)n1` [S6N15 D7], the “Absolute DNA transfection efficiency” value is on record as 1.2%.
For `CCCCCCCCCCCCCCCNc1nc(NCCCN2CCOCC2)nc(SCCCCCC)n1` [S6N15 D8] the value was 3.3%; for `CCCCCCCCCCCCCCCNc1nc(NCCCN2CCN(C)CC2)nc(SCCCCCC)n1` [S6N15 D9], 28.4%.
With `CCCCCCCCCCCCCCCNc1nc(NCC2CCN(C)CC2)nc(SCCCCCC)n1` [S6N15 D10], the “Absolute DNA transfection efficiency” value is recorded as 31.1%.
In the case of `CCCCCCCCCCCCCCCCNc1nc(NCCN(C)C)nc(SCCCCCC)n1` [S6N16 D1] it was 6.6%; in that of `CCCCCCCCCCCCCCCCNc1nc(NCCN2CCOCC2)nc(SCCCCCC)n1` [S6N16 D2], 1.4%; in that of `CCCCCCCCCCCCCCCCNc1nc(NCCN2CCCC2)nc(SCCCCCC)n1` [S6N16 D3], 19.8%.
In the case of `CCCCCCCCCCCCCCCCNc1nc(NCCN2CCCCC2)nc(SCCCCCC)n1` [S6N16 D4] it was 2.4%; in that of `CCCCCCCCCCCCCCCCNc1nc(NCCN2CCN(C)CC2)nc(SCCCCCC)n1` [S6N16 D5], 19.6%.
For `CCCCCCCCCCCCCCCCNc1nc(NCCCN(C)C)nc(SCCCCCC)n1` [S6N16 D6] the value was 22.8%; for `CCCCCCCCCCCCCCCCNc1nc(NCCN(CC)CC)nc(SCCCCCC)n1` [S6N16 D7], 2.6%.
Turning to `CCCCCCCCCCCCCCCCNc1nc(NCCCN2CCOCC2)nc(SCCCCCC)n1` [S6N16 D8], the “Absolute DNA transfection efficiency” value turned out to be 4.2%.
On to `CCCCCCCCCCCCCCCCNc1nc(NCCCN2CCN(C)CC2)nc(SCCCCCC)n1` [S6N16 D9], for which the “Absolute DNA transfection efficiency” value turned out to be 20.6%.
`CCCCCCCCCCCCCCCCNc1nc(NCC2CCN(C)CC2)nc(SCCCCCC)n1` [S6N16 D10]: the “Absolute DNA transfection efficiency” value was 19.7%.
On to `CCCCCCCCCCCCCCCCCCNc1nc(NCCN(C)C)nc(SCCCCCC)n1` [S6N18 D1], for which the “Absolute DNA transfection efficiency” value was 21.0%.
Turning to `CCCCCCCCCCCCCCCCCCNc1nc(NCCN2CCOCC2)nc(SCCCCCC)n1` [S6N18 D2], the “Absolute DNA transfection efficiency” value was determined as 2.5%.
`CCCCCCCCCCCCCCCCCCNc1nc(NCCN2CCCC2)nc(SCCCCCC)n1` [S6N18 D3]: the “Absolute DNA transfection efficiency” value was 21.9%.
In the case of `CCCCCCCCCCCCCCCCCCNc1nc(NCCN2CCCCC2)nc(SCCCCCC)n1` [S6N18 D4] it was 3.5%; in that of `CCCCCCCCCCCCCCCCCCNc1nc(NCCN2CCN(C)CC2)nc(SCCCCCC)n1` [S6N18 D5], 15.4%.
In the case of `CCCCCCCCCCCCCCCCCCNc1nc(NCCCN(C)C)nc(SCCCCCC)n1` [S6N18 D6], the “Absolute DNA transfection efficiency” value stood at 21.8%.
On to `CCCCCCCCCCCCCCCCCCNc1nc(NCCN(CC)CC)nc(SCCCCCC)n1` [S6N18 D7], for which the “Absolute DNA transfection efficiency” value is listed as 5.2%.
In the case of `CCCCCCCCCCCCCCCCCCNc1nc(NCCCN2CCOCC2)nc(SCCCCCC)n1` [S6N18 D8], the “Absolute DNA transfection efficiency” value turned out to be 8.1%.
For `CCCCCCCCCCCCCCCCCCNc1nc(NCCCN2CCN(C)CC2)nc(SCCCCCC)n1` [S6N18 D9], the “Absolute DNA transfection efficiency” value is recorded as 14.1%.
`CCCCCCCCCCCCCCCCCCNc1nc(NCC2CCN(C)CC2)nc(SCCCCCC)n1` [S6N18 D10]: the “Absolute DNA transfection efficiency” value was found to be 13.0%.
Turning to `CCCCCCSc1nc(NCCN(C)C)nc(SCCCCCC)n1` [S6S6 D1], the “Absolute DNA transfection efficiency” value was found to be 1.1%.
`CCCCCCSc1nc(NCCN2CCOCC2)nc(SCCCCCC)n1` [S6S6 D2]: the “Absolute DNA transfection efficiency” value is on record as 0.4%.
In the case of `CCCCCCSc1nc(NCCN2CCCC2)nc(SCCCCCC)n1` [S6S6 D3] it was 4.4%; in that of `CCCCCCSc1nc(NCCN2CCCCC2)nc(SCCCCCC)n1` [S6S6 D4], 1.4%; in that of `CCCCCCSc1nc(NCCN2CCN(C)CC2)nc(SCCCCCC)n1` [S6S6 D5], 9.1%.
In the case of `CCCCCCSc1nc(NCCCN(C)C)nc(SCCCCCC)n1` [S6S6 D6] it was 12.5%; in that of `CCCCCCSc1nc(NCCN(CC)CC)nc(SCCCCCC)n1` [S6S6 D7], 23.0%.
With `CCCCCCSc1nc(NCCCN2CCOCC2)nc(SCCCCCC)n1` [S6S6 D8], the “Absolute DNA transfection efficiency” value is on record as 0.8%.
As for `CCCCCCSc1nc(NCCCN2CCN(C)CC2)nc(SCCCCCC)n1` [S6S6 D9], the “Absolute DNA transfection efficiency” value was determined as 7.6%.
In the case of `CCCCCCSc1nc(NCC2CCN(C)CC2)nc(SCCCCCC)n1` [S6S6 D10], the “Absolute DNA transfection efficiency” value came out at 21.6%.
